# Molecular target: T1, human MGL from HeLa cells (Homo sapiens, UniProt Q99685)
# T1 construct: combining endogenously expressed MGL from HeLa cells with test compounds; endogenous in cells; host or cells: HeLa cells / cell homogenates
# T1 sequence (Q99685 1-303): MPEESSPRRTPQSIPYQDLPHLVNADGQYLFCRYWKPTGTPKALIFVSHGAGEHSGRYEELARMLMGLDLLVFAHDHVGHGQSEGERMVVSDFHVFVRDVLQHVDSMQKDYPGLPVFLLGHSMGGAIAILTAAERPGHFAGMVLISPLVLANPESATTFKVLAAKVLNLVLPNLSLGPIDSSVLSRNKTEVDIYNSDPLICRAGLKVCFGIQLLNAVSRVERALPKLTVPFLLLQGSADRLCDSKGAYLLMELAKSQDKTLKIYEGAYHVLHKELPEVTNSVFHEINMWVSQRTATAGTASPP
# Experiment: In vitro MGL activity assay: [glycerol-1,3-3H]-oleyl glycerol cleavage by MGL from HeLa cells
# Assay type: biochemical
# Conditions: 300 nM [Glycerol-1,3-3H]-oleyl glycerol, one hour
# Source text: MGL is the predominant hydrolase in HeLa cells/cell homogenates.
row,IC50,Compound
1,183 nM,"Cc1c(C(=O)N2CCc3c(nn(C)c3-c3cc(F)c(F)c(F)c3)[C@@H]2C)nn2c1OCCC2 [Example 555, [(7S)-2,7-Dimethyl-3-(3,4,5-trifluorophenyl)-5,7-dihydro-4H-pyrazolo[3,4-c]pyridin-6-yl]-(3-methyl-6,7-dihydro-5H-pyrazolo[5,1-b][1,3]oxazin-2-yl)methanone]"
2,33 nM,"C[C@H]1c2nn(C)c(-c3cccc4scnc34)c2CCN1C(=O)c1ccc2ncccc2c1 [Example 537, [(7S)-3-(1,3-Benzothiazol-4-yl)-2,7-dimethyl-5,7-dihydro-4H-pyrazolo[3,4-c]pyridin-6-yl]-(6-quinolyl)methanone]"
3,44 nM,"C[C@H]1c2nn(C)c(-c3cc(F)c(F)c(F)c3)c2CCN1C(=O)c1cnn2cc(F)ccc12 [Example 384, [(7S)-2,7-Dimethyl-3-(3,4,5-trifluorophenyl)-5,7-dihydro-4H-pyrazolo[3,4-c]pyridin-6-yl]-(6-fluoropyrazolo[1,5-a]pyridin-3-yl)methanone]"
4,18.2 nM,Cc1nc2ccc(C3CC3)cn2c1C(=O)N1CCc2c(nn(C)c2-c2cc(F)c(F)c(F)c2)[C@@H]1C [Example 618]
5,1450 nM,"Cc1ccc(-c2c3c(nn2C)[C@H](C)N(C(=O)c2ccc4ncccc4c2)CC3)cn1 [Example 519, [(7S)-2,7-Dimethyl-3-(6-methyl-3-pyridyl)-5,7-dihydro-4H-pyrazolo[3,4-c]pyridin-6-yl]-(6-quinolyl)methanone]"
6,711 nM,"C[C@H]1c2nn(C)c(-c3cc(F)c(F)c(F)c3)c2CCN1C(=O)c1cccn2ccnc12 [Example 392, [(7S)-2,7-Dimethyl-3-(3,4,5-trifluorophenyl)-5,7-dihydro-4H-pyrazolo[3,4-c]pyridin-6-yl]-imidazo[1,2-a]pyridin-8-yl-methanone]"
7,173 nM,"Cc1nc2c(F)cc(F)cn2c1C(=O)N1CCc2c(nn(C)c2-c2cc(F)c(F)c(F)c2)[C@@H]1C [Example 410, (6,8-Difluoro-2-methyl-imidazo[1,2-a]pyridin-3-yl)-[(7S)-2,7-dimethyl-3-(3,4,5-trifluorophenyl)-5,7-dihydro-4H-pyrazolo[3,4-c]pyridin-6-yl]methanone]"
8,242 nM,"C[C@H]1c2nn(C)c(-c3cc(F)c(F)c(F)c3)c2CCN1C(=O)c1cc2c(cn1)OCCC2 [Example 573, 3,4-Dihydro-2H-pyrano[2,3-c]pyridin-6-yl-[(7S)-2,7-dimethyl-3-(3,4,5-trifluorophenyl)-5,7-dihydro-4H-pyrazolo[3,4-c]pyridin-6-yl]methanone]"
9,525 nM,"Cc1cnn2nc(C3CC3)c(C(=O)N3CCc4c(nn(C)c4-c4cc(F)c(F)c(F)c4)[C@@H]3C)c2c1 [Example 445, (2-Cyclopropyl-5-methyl-pyrazolo[1,5-b]pyridazin-3-yl)-[(7S)-2,7-dimethyl-3-(3,4,5-trifluorophenyl)-5,7-dihydro-4H-pyrazolo[3,4-c]pyridin-6-yl]methanone]"
10,1000 nM,"C[C@H]1c2nn(C)c(-c3cc(F)c(F)c(F)c3)c2CCN1C(=O)c1ccc2oc(=O)[nH]c2c1 [Example 586, 5-[(7S)-2,7-Dimethyl-3-(3,4,5-trifluorophenyl)-5,7-dihydro-4H-pyrazolo[3,4-c]pyridine-6-carbonyl]-3H-1,3-benzoxazol-2-one]"
11,106 nM,"COc1nccc(C(=O)N2CCc3c(nn(C)c3-c3ccc(F)c(OC(F)F)c3)[C@@H]2C)c1C [Example 595, [(7S)-3-[3-(Difluoromethoxy)-4-fluoro-phenyl]-2,7-dimethyl-5,7-dihydro-4H-pyrazolo[3,4-c]pyridin-6-yl]-(2-methoxy-3-methyl-4-pyridyl)methanone]"
12,27 nM,"Cc1nc2c(C)cc(F)cn2c1C(=O)N1CCc2c(nn(C)c2-c2cc(F)c(F)c(F)c2)[C@@H]1C [Example 408, [(7S)-2,7-Dimethyl-3-(3,4,5-trifluorophenyl)-5,7-dihydro-4H-pyrazolo[3,4-c]pyridin-6-yl]-(6-fluoro-2,8-dimethyl-imidazo[1,2-a]pyridin-3-yl)methanone]"
13,25.6 nM,"COc1cc(F)cc(-c2c3c(nn2C)[C@H](C)N(C(=O)c2ccc4c(c2)OCCC4)CC3)c1 [Example 611, Chroman-7-yl-[(7S)-3-(3-fluoro-5-methoxy-phenyl)-2,7-dimethyl-5,7-dihydro-4H-pyrazolo[3,4-c]pyridin-6-yl]methanone]"
14,21.7 nM,"COc1ccnc(C(=O)N2CCc3c(nn(C)c3-c3cc(F)cc(C(F)F)c3)[C@@H]2C)c1Cl [Example 608, (3-Chloro-4-methoxy-2-pyridyl)-[(7S)-3-[3-(difluoromethyl)-5-fluoro-phenyl]-2,7-dimethyl-5,7-dihydro-4H-pyrazolo[3,4-c]pyridin-6-yl]methanone]"

# Same assay, conditions: 300 nM [Glycerol-1,3-3H]-oleyl glycerol, one hour incubation
row,IC50,Compound
1,29.4 nM,"COc1ccc(C(=O)N2CCc3c(nn(C)c3-c3cc(F)c(F)c(F)c3)[C@@H]2C)cc1 [Example 261, [(7S)-2,7-Dimethyl-3-(3,4,5-trifluorophenyl)-5,7-dihydro-4H-pyrazolo[3,4-c]pyridin-6-yl]-(4-methoxyphenyl)methanone]"
2,482 nM,"Cn1nc2c(c1-c1ccccc1)CCN(C(=O)c1ccc3occc3c1)C2 [Example 35, Benzofuran-5-yl(2-methyl-3-phenyl-2,4,5,7-tetrahydro-6H-pyrazolo[3,4-c]pyridin-6-yl)methanone]"
3,799 nM,"Cn1nc2c(c1C1CC1)CCN(C(=O)c1cccc3ccccc13)C2 [Example 3, (3-Cyclopropyl-2-methyl-2,4,5,7-tetrahydro-6H-pyrazolo[3,4-c]pyridin-6-yl)(naphthalen-1-yl)methanone]"
4,25.1 nM,"CC1c2nn(C)c(-c3cc(F)cc(F)c3)c2CCN1C(=O)c1ccc2nccnc2c1 (stereo not drawn) [Example 167, (3-(3,5-Difluorophenyl)-2,7-dimethyl-2,4,5,7-tetrahydro-6H-pyrazolo[3,4-c]pyridin-6-yl)(quinoxalin-6-yl)methanone]"
5,263 nM,"COc1ccc(C(=O)N2CCc3c(nn(C)c3-c3cc(F)c(F)c(F)c3)[C@@H]2C)cn1 [Example 300, [(7S)-2,7-Dimethyl-3-(3,4,5-trifluorophenyl)-5,7-dihydro-4H-pyrazolo[3,4-c]pyridin-6-yl]-(6-methoxy-3-pyridyl)methanone]"
6,282 nM,"Cn1nc2c(c1-c1ccccc1)CCN(C(=O)c1ccc3ccccc3n1)C2 [Example 94, (2-Methyl-3-phenyl-2,4,5,7-tetrahydro-6H-pyrazolo[3,4-c]pyridin-6-yl)(quinolin-2-yl)methanone]"
7,293 nM,"Cn1nc2c(c1-c1ccccc1)CCN(C(=O)c1ccc3ncoc3c1)C2 [Example 56, Benzo[d]oxazol-6-yl(2-methyl-3-phenyl-2,4,5,7-tetrahydro-6H-pyrazolo[3,4-c]pyridin-6-yl)methanone]"
8,245 nM,"C[C@H]1c2nn(C)c(-c3cc(F)c(F)c(F)c3)c2CCN1C(=O)c1cc(F)cc(-n2cnnc2)c1 [Example 292, [(7S)-2,7-Dimethyl-3-(3,4,5-trifluorophenyl)-5,7-dihydro-4H-pyrazolo[3,4-c]pyridin-6-yl]-[3-fluoro-5-(1,2,4-triazol-4-yl)phenyl]methanone]"
9,2.56 nM,"COc1cccc(C(=O)N2CCc3c(nn(C)c3-c3cc(F)c(F)c(F)c3)[C@@H]2C)c1Cl [Example 191, (S)-(2-Chloro-3-methoxyphenyl)(2,7-dimethyl-3-(3,4,5-trifluorophenyl)-2,4,5,7-tetrahydro-6H-pyrazolo[3,4-c]pyridin-6-yl)methanone]"
10,307 nM,"C[C@H]1c2nn(C)c(-c3cc(F)c(F)c(F)c3)c2CCN1C(=O)c1ccc(F)cc1-n1nccn1 [Example 196, (S)-(2,7-Dimethyl-3-(3,4,5-trifluorophenyl)-2,4,5,7-tetrahydro-6H-pyrazolo[3,4-c]pyridin-6-yl)(4-fluoro-2-(2H-1,2,3-triazol-2-yl)phenyl)methanone]"
11,14.1 nM,"C[C@H]1c2nn(C)c(-c3cc(F)c(F)c(F)c3)c2CCN1C(=O)c1ccc2ncccc2n1 [Example 244, (S)-(2,7-Dimethyl-3-(3,4,5-trifluorophenyl)-2,4,5,7-tetrahydro-6H-pyrazolo[3,4-c]pyridin-6-yl)(1,5-naphthyridin-2-yl)methanone]"
12,2.27 nM,"Cc1cc(C(=O)N2CCc3c(nn(C)c3-c3cc(F)c(F)c(F)c3)[C@@H]2C)cc(-n2nccn2)c1 [Example 286, [(7S)-2,7-Dimethyl-3-(3,4,5-trifluorophenyl)-5,7-dihydro-4H-pyrazolo[3,4-c]pyridin-6-yl]-[3-methyl-5-(triazol-2-yl)phenyl]methanone]"
13,105 nM,"COc1ccc(-c2c3c(nn2C)[C@H](C)N(C(=O)c2ccc4nccnc4c2)CC3)cc1Cl [Example 188, (S)-(3-(3-Chloro-4-methoxyphenyl)-2,7-dimethyl-2,4,5,7-tetrahydro-6H-pyrazolo[3,4-c]pyridin-6-yl)(quinoxalin-6-yl)methanone]"
14,1090 nM,"CC(C)c1c(C(=O)N2CCc3c(nn(C)c3-c3cc(F)c(F)c(F)c3)[C@@H]2C)cnn1C [Example 328, [(7S)-2,7-Dimethyl-3-(3,4,5-trifluorophenyl)-5,7-dihydro-4H-pyrazolo[3,4-c]pyridin-6-yl]-(5-isopropyl-1-methyl-pyrazol-4-yl)methanone]"
15,250 nM,"C[C@H]1c2nn(C)c(-c3cc(F)c(F)c(F)c3)c2CCN1C(=O)c1cnn(C2CC2)c1 [Example 331, (1-Cyclopropylpyrazol-4-yl)-[(7S)-2,7-dimethyl-3-(3,4,5-trifluorophenyl)-5,7-dihydro-4H-pyrazolo[3,4-c]pyridin-6-yl]methanone]"
16,19.1 nM,"C[C@H]1c2nn(C)c(-c3cc(F)c(F)c(F)c3)c2CCN1C(=O)c1cccc(-n2nccn2)c1 [Example 283, [(7S)-2,7-Dimethyl-3-(3,4,5-trifluorophenyl)-5,7-dihydro-4H-pyrazolo[3,4-c]pyridin-6-yl]-[3-(triazol-2-yl)phenyl]methanone]"

# Source: patent US11820766B2, “Monoacylglycerol lipase modulators” (Janssen Pharmaceutica NV, priority 2018, dated 2023)
